In the assay the target is T1, pS166-RIPK1 in human PBMC lysates (Homo sapiens, UniProt Q13546).
T1 construct: Human PBMC are a primary cell type that express endogenous RIPK kinase; endogenous in cells; host or cells: human PBMC isolated from blood of healthy participants
T1 sequence (Q13546 1-671): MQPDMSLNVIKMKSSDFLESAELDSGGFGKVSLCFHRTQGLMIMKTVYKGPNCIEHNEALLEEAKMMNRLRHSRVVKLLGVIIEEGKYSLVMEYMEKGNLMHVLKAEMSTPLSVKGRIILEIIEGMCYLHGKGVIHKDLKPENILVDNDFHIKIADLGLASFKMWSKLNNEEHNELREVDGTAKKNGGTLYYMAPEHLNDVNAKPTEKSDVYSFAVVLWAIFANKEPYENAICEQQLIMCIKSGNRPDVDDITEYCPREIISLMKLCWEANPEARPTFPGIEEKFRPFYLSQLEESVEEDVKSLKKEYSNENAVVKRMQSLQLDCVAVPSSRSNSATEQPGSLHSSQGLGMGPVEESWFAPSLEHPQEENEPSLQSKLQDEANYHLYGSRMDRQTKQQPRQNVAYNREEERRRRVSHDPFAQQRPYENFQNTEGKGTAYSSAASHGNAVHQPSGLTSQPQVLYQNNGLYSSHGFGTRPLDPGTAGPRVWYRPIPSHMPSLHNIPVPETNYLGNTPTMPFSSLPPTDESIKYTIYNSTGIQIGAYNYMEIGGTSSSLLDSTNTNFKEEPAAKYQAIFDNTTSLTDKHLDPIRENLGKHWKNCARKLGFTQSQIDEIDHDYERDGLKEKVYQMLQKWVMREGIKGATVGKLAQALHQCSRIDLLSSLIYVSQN
The experiment in a line: Inhibition of pS166-RIPK1 in PBMC lysates (peripheral target engagement). The following applies: for pS166-RIPK1 percent change from baseline: Day15-T24h. It counts as in vivo. The source says: Activity of RIPK1 when stimulated can be detected by an increase in autophosphorylation at serine 166 in the RIPK1 protein. Human PBMC are a primary cell type that express endogenous RIPK kinase. Therefore, the ability of Compound 1 to inhibit RIPK1 kinase activity, as measured by the inhibition of pS166-RIPK1 in prepared PBMC lysates isolated from blood samples, was investigated to assess the peripheral target engagement; pS166-RIPK1 levels in human PBMC lysates and percentage of change from baseline were calculated. In Part 1a study, six blood samples (at pre-dose, at 1, 3, 5, 8 hours on Day 1, and at 24 hours on Day 2) for pS166-RIPK1 level were collected per participant. In Part 2 study, blood samples were collected at timepoint (predose/baseline, D7 and D14 T0 (prior to dosing), at the followings timepoints at D14: T1h, T3H, T6H, T8h, then at D15/T24H and D16/T48H. Interquartile range (IQR: Q1-Q3) and geometric mean were added to the usual descriptive statistics.
Levels of pS166-RIPK1 and percentage of change from baseline were summarized descriptively by dose level group and time point. PD population includes participants included in the safety population with no major or critical deviations related to IMP and/or pharmacodynamic (PD) measurements, for whom the PD data are considered sufficient and interpretable will be included in the pharmacodynamic population. Scatterplots were provided for pS166-RIPK1 data versus PK plasma concentration in the PK/PD population. For each participant, the percent change compared to their baseline was evaluated at multiple timepoints up to 24 hours in Part 1a and up to 48 hours in Part 2.
The amount of phosphorylation at serine 166 in RIPK1 protein (pS166-RIPK1) was measured in PBMC lysates prepared from blood samples. Variability in baseline values between individuals was observed across the treatment groups. For each participant, the percent change compared to their baseline was evaluated at multiple timepoints. A negative value for percent change indicates an inhibition of phosphorylation of RIPK1 at-serine166 (pS166-RIPK1).

Molecules are shown by their SMILES. Like-named read-outs stand apart in the source and are kept apart here.

Regarding `CC(C)(C(=O)N1CCOc2c(C#N)cncc2C1)C(F)F` [Compound 1, 4-(3,3-difluoro-2,2-dimethyl-propanoyl)-3,5-dihydro-2H-pyrido[3,4-f] [1,4]oxazepine-9-carbonitrile], the “Median inhibition of pS166-RIPK1” value is on record as 90.43% (Part 1a 20 mg, 1 hr post dose); 80.16% (Part 1a 30 mg, 24 hours post dose, one replicate); “greater than 80%” (Part 1a, all dose groups (10, 20, 30, 40 mg), 1 hour up to 5 hours post dose). For the same molecule, under “Part 1a 20 mg, 5 hrs”, the “Median inhibition of pS166-RIPK1, peak” value was found to be 96.63%. The “Median inhibition of pS166-RIPK1, maintained” value (Part 1a 20 mg, over 24 hours) is on record as “greater than 94%”. For the same molecule, the “Peak median inhibition of pS166-RIPK1” value reads like this: (Part 1a 30 mg, 3 hr, one replicate) 91.48%; (Part 1a 40 mg, 1 hr post dose, 4 participants) 86.69%. Further, the “pS166-RIPK1 percent change from baseline” value (Part 2, 15 mg BID) was −80.29% and the “pS166-RIPK1 percent change from baseline” value (Part 2, 20 mg BID) is listed as −97.76%. Besides, for the setting “Part 2, all dose level groups (10 mg QD to 20 mg BID), Ctrough Day 7 up to 24 hours post-last dosing”, the “Inhibition of pS166-RIPK1” value is listed as around 90%. Also, the Emax at 10 mg (Part 2 Day 14, 10 mg QD, 6 hours post-last morning dose, n=5, read-out: Median inhibition of pS166-RIPK1, maximal effect) is 99%. For the same molecule, the Emax at 15 mg (Part 2 Day 14, 15 mg BID, 6 hours post-last morning dose, n=7, read-out: Median inhibition of pS166-RIPK1, maximal effect) stood at 92.8%. In addition, the Emax at 20 mg by setting is: (Part 2 Day 14, 20 mg BID, 8 hours post-last morning dose, n=3, read-out: Median inhibition of pS166-RIPK1, maximal effect) 99.2%; (Part 2 Day 14, 20 mg QD, 6 hours post-last morning dose, n=4, read-out: Median inhibition of pS166-RIPK1, maximal effect) 96.5%. The molecule also showed an EC90 (in vivo in PBMC) of 38 nM.

Usually EC90 stands for the concentration needed for an effect of 90%. Lower therefore signals an effect from little substance.

(Values after patent US20240100065A1, “METHODS FOR TREATING RECEPTOR-INTERACTING PROTEIN KINASE 1-MEDIATED DISEASES” (Genzyme Corporation, priority 2022, published 2024).)
